According to patent publication US20260158009A1 (GENZYME CORPORATION, priority 2023, published 2026):

Assays:
[1] = molecular target: T1, hRIPK1 (aa 1-375) fusion protein (Homo sapiens, UniProt Q13546); experiment: ADP-Glo kinase assay: catalytic activity of RIPK1 (autophosphorylation, conversion of ATP to ADP); type: biochemical
T1 construct: hRIPK1 (aa 1-375) fusion protein
T1 sequence (Q13546 1-375): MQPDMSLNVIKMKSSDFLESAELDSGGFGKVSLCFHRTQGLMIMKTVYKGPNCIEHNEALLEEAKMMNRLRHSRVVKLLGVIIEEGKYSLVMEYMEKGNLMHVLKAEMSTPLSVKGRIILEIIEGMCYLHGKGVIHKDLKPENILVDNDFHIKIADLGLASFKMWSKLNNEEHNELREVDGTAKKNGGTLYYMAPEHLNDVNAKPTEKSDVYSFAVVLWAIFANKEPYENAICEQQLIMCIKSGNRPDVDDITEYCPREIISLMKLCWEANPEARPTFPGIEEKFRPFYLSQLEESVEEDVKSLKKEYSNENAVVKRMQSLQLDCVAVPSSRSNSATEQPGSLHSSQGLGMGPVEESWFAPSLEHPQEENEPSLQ
Description: The catalytic activity of RIPK1 was measured by monitoring the conversion of Adenosine triphosphate (ATP) to Adenosine diphosphate (ADP) due to autophosphorylation using an ADP-Glo kinase kit (Promega, catalog no. V9104).
In detail, 2 μl recombinantly produced hRIPK1 (aa 1-375) fusion protein (end concentration 3.6 μg/ml) and 2 μl compound (end concentration 33300-1.69 nM; DMSO end concentration 1%) were incubated for 30 minutes at room temperature and then 2 μl ATP (ADP Glo kit, end concentration 50 μM) were added. After another 240 minutes incubation at room temperature, 5 μl Promega ADP-Glo reagent I was added to quench the reaction and deplete unconsumed ATP. After an incubation period of 30 minutes, 10 μl Promega ADP-Glo detection reagent II was added resulting in conversion of ADP to ATP, which generates a light-reaction between luciferase and luciferin. Luminescence was quantified after 30 minutes with a Pherastar FS (BMG LABTECH, Ortenberg).
The adjustment was obtained by nonlinear regression using the Levenberg Marquardt algorithm.

U937 cells = experiment: Cellular assay in U937 cells: activity of RIPK1 inhibitors on TNFα/zVAD.fmk-induced cell death (necroptosis), CellTiter 96 AQueous (MTS) readout; type: cell-based; conditions: Homo sapiens, U-937
Description: Upon TNF-Receptor I ligation, Ser/Thr kinase RIPK1 is recruited to a transient receptor complex 1. Upon modification of RIPK1 which promotes activation of RIPK1, complex IIb can form, that involves recruitment of RIPK3 and MLKL (mixed lineage-kinase domain-like protein) which then translocates from the cytosol to the plasma membrane to execute cell death (Cai, Z. et al, Nat. Cell Biol. (2014) 16:55-65).
Cell death was quantified in 96 well plates by determination of the amount of live cell using a CellTiter 96 AQueous reagent (Promega), a calorimetric method to measure the number of live cells by reducing tetrazolium compound [3-(4,5-dimethylthiazol-2-yl)-5-(3-carboxymethoxyphenyl)-2-(4-sulfophenyl)-2H-tetrazolium, inner salt; MTS] into formazan. Absorbance of formazan was read at 490 nm. The inhibitory activity of the test compound was quantified in a concentration response curve (CRC) experiment.
Compounds were obtained as 10 mM stock solutions and were diluted 1 to 10 volumes with DMSO to yield a 1 mM solution. From this solution 2 μl were diluted with 998 μl growth medium. 100 μl of 2 μM compound solution was further diluted sequentially with a dilution factor of 2.5 by adding 150 μl growth medium. A total of 10 concentrations were tested ranging from 10 μM to 0.26 nM or from 1 μM to 0.07 nM.
U937 cells were cultured in RPMI1640 Glutamax and 10% heat inactivated FBS. 50 μl cell suspension containing 1×10^6 cells/ml supplemented with 50 μM zVAD.fmk (Benzyloxycarbonyl-Val-Ala-Asp (OMe) fluoromethylketone) and 100 ng/ml recombinant human TNF[…] were dispensed in each well of a 96-well plate. 50 μl of compound dilutions (described in Cellular assay in U937 cells) were added and the cell suspension incubated overnight (18 to 24 hrs) at 37° C., 5% CO2 in a humidified atmosphere (95% rH). High (no compound) and low control (no TNF[…], zVAD.fmk) were tested with 7 replicates; all compound concentrations were tested in duplicates on each experimental plate.
CellTiter 96 Aqueous reagent was mixed (100 μl PMS (phenazine methosulfate) solution/2 ml MTS (3-(4,5-[…])-5-(3-carboxymethoxyphenyl)-2-(4-sulfophenyl)-2H-tetrazolium, inner salt) solution) and 20 μl were added per well. After 4 hrs incubation at 37° C. (5% CO2 95% rH) optical density was measured at 490 nm on a microplate reader (Tecan Infinite M1000).
The % inhibition is expressed as percentage of the maximal inhibition value obtained in the absence of TNFα/zVAD.fmc.

IC50 [1] [nM]	Compound	IC50 (U937 cells) [nM]
21	O=C([C@H]1CC[C@H](Cn2cnc3cc(F)ccc32)CC1)N1OCC[C@H]1c1cc(F)cc(F)c1 [compound 49, trans-((S)-3-(3,5-difluorophenyl)isoxazolidin-2-yl)(4-((5-fluoro-1H-benzo[d]imidazol-1-yl)methyl)cyclohexyl)methanone]	8
45	N#Cc1cncc([C@@H]2CCON2C(=O)[C@H]2CC[C@H](Cc3ccc(C4(O)COC4)cc3)CC2)c1 [compound 183, trans-5-[(3S)-2-[4-[[4-(3-hydroxyoxetan-3-yl)phenyl]methyl]cyclohexanecarbonyl]isoxazolidin-3-yl]pyridine-3-carbonitrile]	23
22	Cc1cn(C[C@H]2CC[C@H](C(=O)N3OCC[C@H]3c3cc(F)cc(C#N)c3)CC2)c2cc(C(N)=O)ccc12 [compound 110, trans-1-((4-((S)-3-(3-cyano-5-fluorophenyl)isoxazolidine-2-carbonyl)cyclohexyl)methyl)-3-methyl-1H-indole-6-carboxamide]	11
18	N#Cc1cc(F)cc([C@@H]2CCON2C(=O)[C@H]2CC[C@H](Cn3ccc4ccc(C(N)=O)cc43)CC2)c1 [compound 104, trans-1-((4-((S)-3-(3-cyano-5-fluorophenyl)isoxazolidine-2-carbonyl)cyclohexyl)methyl)-1H-indole-6-carboxamide]	5
29	N#Cc1cc(F)cc([C@@H]2CCON2C(=O)[C@H]2CC[C@H](Cn3ccc4ncc(O)cc43)CC2)c1 [compound 129, trans-3-fluoro-5-[(3S)-2-[4-[(6-hydroxypyrrolo[3,2-b]pyridin-1-yl)methyl]cyclohexanecarbonyl]isoxazolidin-3-yl]benzonitrile]	7
24	NC(=O)c1ccc2c(cnn2C[C@H]2CC[C@H](C(=O)N3OCC[C@H]3c3cc(F)cc(F)c3)CC2)c1 [compound 73, trans-1-((4-((S)-3-(3,5-difluorophenyl)isoxazolidine-2-carbonyl)cyclohexyl)methyl)-1H-indazole-5-carboxamide]	9
104	Cn1cncc1C[C@H]1CC[C@H](C(=O)N2OCC[C@H]2c2cc(F)cc(C#N)c2)CC1 [compound 167, trans-3-fluoro-5-[(3S)-2-[4-[(3-methylimidazol-4-yl)methyl]cyclohexanecarbonyl]isoxazolidin-3-yl]benzonitrile]	100
14	Cn1ncc2ncc(C[C@H]3CC[C@H](C(=O)N4OCC[C@H]4c4cc(F)cc(F)c4)CC3)cc21 [compound 297, trans-[(3S)-3-(3,5-difluorophenyl)isoxazolidin-2-yl]-[4-[(1-methylpyrazolo[4,3-b]pyridin-6-yl)methyl]cyclohexyl]methanone]	7
22	Cc1nn(C[C@H]2CC[C@H](C(=O)N3OCC[C@H]3c3cc(F)cc(C#N)c3)CC2)c2cc(F)c(C#N)cc12 [compound 69, trans-1-((4-((S)-3-(3-cyano-5-fluorophenyl)isoxazolidine-2-carbonyl)cyclohexyl)methyl)-6-fluoro-3-methyl-1H-indazole-5-carbonitrile]	5
33	N#Cc1cc2c(cc1F)ncn2C[C@H]1CC[C@H](C(=O)N2OCC[C@H]2c2cc(F)cc(F)c2)CC1 [compound 12, trans-1-((4-((S)-3-(3,5-difluorophenyl)isoxazolidine-2-carbonyl)cyclohexyl)methyl)-5-fluoro-1H-benzo[d]imidazole-6-carbonitrile]	3
21	Cc1nn(C)cc1-c1cncc(C[C@H]2CC[C@H](C(=O)N3OCC[C@H]3c3cnccn3)CC2)c1 [compound 308, trans-[4-[[5-(1,3-dimethylpyrazol-4-yl)-3-pyridyl]methyl]cyclohexyl]-[(3S)-3-pyrazin-2-ylisoxazolidin-2-yl]methanone]	47
41	N#Cc1cc(F)c2cn(C[C@H]3CC[C@H](C(=O)N4OCC[C@H]4c4cc(F)cc(F)c4)CC3)nc2c1 [compound 35, trans-2-((4-((S)-3-(3,5-difluorophenyl)isoxazolidine-2-carbonyl)cyclohexyl)methyl)-4-fluoro-2H-indazole-6-carbonitrile]	48
34	Cc1nc2ccc(C[C@H]3CC[C@H](C(=O)N4OCC[C@H]4c4cncc(C#N)c4)CC3)cn2n1 [compound 262, trans-5-[(3S)-2-[4-[(2-methyl-[1,2,4]triazolo[1,5-a]pyridin-6-yl)methyl]cyclohexanecarbonyl]isoxazolidin-3-yl]pyridine-3-carbonitrile]	67
138	Cc1ccc(C[C@H]2CC[C@H](C(=O)N3OCC[C@H]3c3cnccn3)CC2)nn1 [compound 357, trans-[4-[(6-methylpyridazin-3-yl)methyl]cyclohexyl]-[(3S)-3-pyrazin-2-ylisoxazolidin-2-yl]methanone]	531
62	COc1cncc([C@@H]2CCON2C(=O)[C@H]2CC[C@H](Cn3ncc4ccc(C(N)=O)cc43)CC2)n1 [Compound 201, trans-1-[[4-[(3S)-3-(6-methoxypyrazin-2-yl)isoxazolidine-2-carbonyl]cyclohexyl]methyl]indazole-6-carboxamide]	190
15	Cc1ncc(C[C@H]2CC[C@H](C(=O)N3OCC[C@H]3c3ccc(F)c(F)c3)CC2)cn1 [compound 309, trans-[(3S)-3-(3,4-difluorophenyl)isoxazolidin-2-yl]-[4-[(2-methylpyrimidin-5-yl)methyl]cyclohexyl]methanone]	50
180	Cc1nc([C@@H]2CCON2C(=O)[C@H]2CC[C@H](Cc3cc(F)c4nnc(C)n4c3)CC2)cs1 [compound 363, trans-[4-(8-Fluoro-3-methyl-[1,2,4]triazolo[4,3-a]pyridin-6-ylmethyl)-cyclohexyl]-[(S)-3-(2-methyl-thiazol-4-yl)-isoxazolidin-2-yl]-methanone]	222
29	O=C([C@H]1CC[C@H](Cc2ccc3ncnn3c2)CC1)N1OCC[C@H]1c1cncc(F)c1 [compound 338, trans-[(3S)-3-(5-fluoropyridin-3-yl)-1,2-oxazolidin-2-yl]-[4-([1,2,4]triazolo[1,5-a]pyridin-6-ylmethyl)cyclohexyl]methanone]	45
7	Cc1nc([C@@H]2CCON2C(=O)[C@H]2CC[C@H](Cc3ccc(C)c(C(N)=O)c3)CC2)cs1 [compound 159, trans-2-methyl-5-[[4-[(3S)-3-(2-methylthiazol-4-yl)isoxazolidine-2-carbonyl]cyclohexyl]methyl]benzamide]	48
11	Cn1nccc1C[C@H]1CC[C@H](C(=O)N2OCC[C@H]2c2ccc(F)c(F)c2)CC1 [compound 311, trans-[(3S)-3-(3,4-difluorophenyl)isoxazolidin-2-yl]-[4-[(2-methylpyrazol-3-yl)methyl]cyclohexyl]methanone]	16
